Results: patent US6673812B1, “Preventives/remedies for glaucoma” (Senju Pharmaceutical Co., Ltd., priority 1998, dated 2004)

System: Japanese white rabbits
Assay: Ophthalmic disorder caused by 8-time-a-day instillation to white rabbits: macroscopic observation of anterior segment of the eye
Type: in vivo, rabbit
Set-up: scale not given here
Settings: mean of three eyes
Method: The test drugs, Compound A and Compound C, were each dissolved in the following base at a concentration of 0.125, 0.25, 0.5 and 1.0% and adjusted to pH 7 for use in this experiment. [table] Japanese white rabbits (body weight about 2 kg) purchased from Japan Laboratory Animals, INC. were used. These animals were bred in a breeding chamber set to temperature 23±3° C., humidity 55±10% and fed on limited amount of 100 g a day of a solid feed (Labo R Stock, Nihon-Nosan Kogyo K.K.). They were allowed free access to tap water. Instillation: Using a micropipet, each test drug (100 μl) was instilled into the right eye of each animal 8 times at one hour intervals. Into the left eye was instilled a base in the same manner. Observation: anterior segment of the eye was macroscopically observed before instillation and 30 min after 2nd, 4th, 6th and 8th administrations, according to the macroscopic criteria for ocular lesions as shown in Table 1 (Naruyuki Fukui, […] no Rinshou 4, 277-289, 1970). In addition, corneal staining spot was observed before instillation and after 8th administration. [table]

[1] = 0.125%, 30 min after 2nd instillation
[2] = 0.125%, 30 min after 4th instillation
[3] = 0.125%, 30 min after 6th instillation
[4] = 0.125%, 30 min after 8th instillation
[5] = 0.25%, 30 min after 2nd instillation
[6] = 0.25%, 30 min after 4th instillation
[7] = 0.25%, 30 min after 6th instillation
[8] = 0.25%, 30 min after 8th instillation
[9] = 0.5%, 30 min after 2nd instillation
[10] = 0.5%, 30 min after 4th instillation
[11] = 0.5%, 30 min after 6th instillation
[12] = 0.5%, 30 min after 8th instillation
[13] = 1.0%, 30 min after 2nd instillation
[14] = 1.0%, 30 min after 4th instillation
[15] = 1.0%, 30 min after 6th instillation
[16] = 1.0%, 30 min after 8th instillation

Score of ocular lesions: Conjunctiva Bulbar redness [1]: 0.33
Score of ocular lesions: Conjunctiva Discharge [1]: 0
Score of ocular lesions: Conjunctiva Nictitating membrane [1]: 0
Score of ocular lesions: Conjunctiva Palpebral edema [1]: 0
Score of ocular lesions: Conjunctiva Palpebral redness [1]: 0.17
Score of ocular lesions: Cornea Area [1]: 0
Score of ocular lesions: Cornea Degree [1]: 0
Score of ocular lesions: Iris Values [1]: 0
Score of ocular lesions: Total score [1]: 0.50
Score of ocular lesions: Conjunctiva Bulbar redness [2]: 0.33
Score of ocular lesions: Conjunctiva Discharge [2]: 0.17
Score of ocular lesions: Conjunctiva Nictitating membrane [2]: 0
Score of ocular lesions: Conjunctiva Palpebral edema [2]: 0
Score of ocular lesions: Conjunctiva Palpebral redness [2]: 0
Score of ocular lesions: Cornea Area [2]: 0
Score of ocular lesions: Cornea Degree [2]: 0
Score of ocular lesions: Iris Values [2]: 0
Score of ocular lesions: Total score [2]: 0.50
Score of ocular lesions: Conjunctiva Bulbar redness [3]: 0.33
Score of ocular lesions: Conjunctiva Discharge [3]: 0.50
Score of ocular lesions: Conjunctiva Nictitating membrane [3]: 0
Score of ocular lesions: Conjunctiva Palpebral edema [3]: 0.33
Score of ocular lesions: Conjunctiva Palpebral redness [3]: 0.33
Score of ocular lesions: Cornea Area [3]: 0
Score of ocular lesions: Cornea Degree [3]: 0
Score of ocular lesions: Iris Values [3]: 0
Score of ocular lesions: Total score [3]: 1.99
Score of ocular lesions: Conjunctiva Bulbar redness [4]: 0.33
Score of ocular lesions: Conjunctiva Discharge [4]: 0
Score of ocular lesions: Conjunctiva Nictitating membrane [4]: 0.17
Score of ocular lesions: Conjunctiva Palpebral edema [4]: 0.50
Score of ocular lesions: Conjunctiva Palpebral redness [4]: 0.33
Score of ocular lesions: Cornea Area [4]: 0
Score of ocular lesions: Cornea Degree [4]: 0
Score of ocular lesions: Iris Values [4]: 0
Score of ocular lesions: Total score [4]: 1.33
Score of ocular lesions: Conjunctiva Bulbar redness (0.125%, Before instillation): 0
Score of ocular lesions: Conjunctiva Discharge (0.125%, Before instillation): 0
Score of ocular lesions: Conjunctiva Nictitating membrane (0.125%, Before instillation): 0
Score of ocular lesions: Conjunctiva Palpebral edema (0.125%, Before instillation): 0
Score of ocular lesions: Conjunctiva Palpebral redness (0.125%, Before instillation): 0
Score of ocular lesions: Cornea Area (0.125%, Before instillation): 0
Score of ocular lesions: Cornea Degree (0.125%, Before instillation): 0
Score of ocular lesions: Iris Values (0.125%, Before instillation): 0
Score of ocular lesions: Total score (0.125%, Before instillation): 0
Score of ocular lesions: Conjunctiva Bulbar redness [5]: 0.50
Score of ocular lesions: Conjunctiva Discharge [5]: 0
Score of ocular lesions: Conjunctiva Nictitating membrane [5]: 0.17
Score of ocular lesions: Conjunctiva Palpebral edema [5]: 0
Score of ocular lesions: Conjunctiva Palpebral redness [5]: 0.17
Score of ocular lesions: Cornea Area [5]: 0
Score of ocular lesions: Cornea Degree [5]: 0
Score of ocular lesions: Iris Values [5]: 0
Score of ocular lesions: Total score [5]: 0.84
Score of ocular lesions: Conjunctiva Bulbar redness [6]: 0.50
Score of ocular lesions: Conjunctiva Discharge [6]: 0.17
Score of ocular lesions: Conjunctiva Nictitating membrane [6]: 0.50
Score of ocular lesions: Conjunctiva Palpebral edema [6]: 0
Score of ocular lesions: Conjunctiva Palpebral redness [6]: 0
Score of ocular lesions: Cornea Area [6]: 0
Score of ocular lesions: Cornea Degree [6]: 0
Score of ocular lesions: Iris Values [6]: 0
Score of ocular lesions: Total score [6]: 1.00
Score of ocular lesions: Conjunctiva Bulbar redness [7]: 0.50
Score of ocular lesions: Conjunctiva Discharge [7]: 0.50
Score of ocular lesions: Conjunctiva Nictitating membrane [7]: 0.50
Score of ocular lesions: Conjunctiva Palpebral edema [7]: 0.17
Score of ocular lesions: Conjunctiva Palpebral redness [7]: 0.33
Score of ocular lesions: Cornea Area [7]: 0
Score of ocular lesions: Cornea Degree [7]: 0
Score of ocular lesions: Iris Values [7]: 0
Score of ocular lesions: Total score [7]: 1.50
Score of ocular lesions: Conjunctiva Bulbar redness [8]: 0.83
Score of ocular lesions: Conjunctiva Discharge [8]: 0
Score of ocular lesions: Conjunctiva Nictitating membrane [8]: 0.50
Score of ocular lesions: Conjunctiva Palpebral edema [8]: 0
Score of ocular lesions: Conjunctiva Palpebral redness [8]: 0.33
Score of ocular lesions: Cornea Area [8]: 0
Score of ocular lesions: Cornea Degree [8]: 0
Score of ocular lesions: Iris Values [8]: 0
Score of ocular lesions: Total score [8]: 1.66
Score of ocular lesions: Conjunctiva Bulbar redness (0.25%, Before instillation): 0
Score of ocular lesions: Conjunctiva Discharge (0.25%, Before instillation): 0
Score of ocular lesions: Conjunctiva Nictitating membrane (0.25%, Before instillation): 0
Score of ocular lesions: Conjunctiva Palpebral edema (0.25%, Before instillation): 0
Score of ocular lesions: Conjunctiva Palpebral redness (0.25%, Before instillation): 0
Score of ocular lesions: Cornea Area (0.25%, Before instillation): 0
Score of ocular lesions: Cornea Degree (0.25%, Before instillation): 0
Score of ocular lesions: Iris Values (0.25%, Before instillation): 0
Score of ocular lesions: Total score (0.25%, Before instillation): 0
Score of ocular lesions: Conjunctiva Bulbar redness [9]: 0.50
Score of ocular lesions: Conjunctiva Discharge [9]: 0
Score of ocular lesions: Conjunctiva Nictitating membrane [9]: 0
Score of ocular lesions: Conjunctiva Palpebral edema [9]: 0.17
Score of ocular lesions: Conjunctiva Palpebral redness [9]: 0.17
Score of ocular lesions: Cornea Area [9]: 0
Score of ocular lesions: Cornea Degree [9]: 0
Score of ocular lesions: Iris Values [9]: 0
Score of ocular lesions: Total score [9]: 0.49
Score of ocular lesions: Conjunctiva Bulbar redness [10]: 0.50
Score of ocular lesions: Conjunctiva Discharge [10]: 0.33
Score of ocular lesions: Conjunctiva Nictitating membrane [10]: 0.33
Score of ocular lesions: Conjunctiva Palpebral edema [10]: 0.17
Score of ocular lesions: Conjunctiva Palpebral redness [10]: 0.17
Score of ocular lesions: Cornea Area [10]: 0
Score of ocular lesions: Cornea Degree [10]: 0
Score of ocular lesions: Iris Values [10]: 0
Score of ocular lesions: Total score [10]: 1.50
Score of ocular lesions: Conjunctiva Bulbar redness [11]: 0.50
Score of ocular lesions: Conjunctiva Discharge [11]: 2.67
Score of ocular lesions: Conjunctiva Nictitating membrane [11]: 0.50
Score of ocular lesions: Conjunctiva Palpebral edema [11]: 0.83
Score of ocular lesions: Conjunctiva Palpebral redness [11]: 0.67
Score of ocular lesions: Cornea Area [11]: 0
Score of ocular lesions: Cornea Degree [11]: 0
Score of ocular lesions: Iris Values [11]: 0
Score of ocular lesions: Total score [11]: 5.17
Score of ocular lesions: Conjunctiva Bulbar redness [12]: 0.83
Score of ocular lesions: Conjunctiva Discharge [12]: 1.17
Score of ocular lesions: Conjunctiva Nictitating membrane [12]: 0.67
Score of ocular lesions: Conjunctiva Palpebral edema [12]: 0.67
Score of ocular lesions: Conjunctiva Palpebral redness [12]: 0.67
Score of ocular lesions: Cornea Area [12]: 0
Score of ocular lesions: Cornea Degree [12]: 0
Score of ocular lesions: Iris Values [12]: 0
Score of ocular lesions: Total score [12]: 4.01
Score of ocular lesions: Conjunctiva Bulbar redness (0.5%, Before instillation): 0.17
Score of ocular lesions: Conjunctiva Discharge (0.5%, Before instillation): 0
Score of ocular lesions: Conjunctiva Nictitating membrane (0.5%, Before instillation): 0
Score of ocular lesions: Conjunctiva Palpebral edema (0.5%, Before instillation): 0
Score of ocular lesions: Conjunctiva Palpebral redness (0.5%, Before instillation): 0
Score of ocular lesions: Cornea Area (0.5%, Before instillation): 0
Score of ocular lesions: Cornea Degree (0.5%, Before instillation): 0
Score of ocular lesions: Iris Values (0.5%, Before instillation): 0
Score of ocular lesions: Total score (0.5%, Before instillation): 0.17
Score of ocular lesions: Conjunctiva Bulbar redness [13]: 0.50
Score of ocular lesions: Conjunctiva Discharge [13]: 0.33
Score of ocular lesions: Conjunctiva Nictitating membrane [13]: 0.17
Score of ocular lesions: Conjunctiva Palpebral edema [13]: 0.67
Score of ocular lesions: Conjunctiva Palpebral redness [13]: 0.50
Score of ocular lesions: Cornea Area [13]: 0
Score of ocular lesions: Cornea Degree [13]: 0
Score of ocular lesions: Iris Values [13]: 0
Score of ocular lesions: Total score [13]: 2.17
Score of ocular lesions: Conjunctiva Bulbar redness [14]: 0.50
Score of ocular lesions: Conjunctiva Discharge [14]: 0.67
Score of ocular lesions: Conjunctiva Nictitating membrane [14]: 0.50
Score of ocular lesions: Conjunctiva Palpebral edema [14]: 0.67
Score of ocular lesions: Conjunctiva Palpebral redness [14]: 0.50
Score of ocular lesions: Cornea Area [14]: 0
Score of ocular lesions: Cornea Degree [14]: 0
Score of ocular lesions: Iris Values [14]: 0
Score of ocular lesions: Total score [14]: 2.84
Score of ocular lesions: Conjunctiva Bulbar redness [15]: 1.17
Score of ocular lesions: Conjunctiva Discharge [15]: 1.67
Score of ocular lesions: Conjunctiva Nictitating membrane [15]: 0.67
Score of ocular lesions: Conjunctiva Palpebral edema [15]: 1.33
Score of ocular lesions: Conjunctiva Palpebral redness [15]: 0.83
Score of ocular lesions: Cornea Area [15]: 0
Score of ocular lesions: Cornea Degree [15]: 0
Score of ocular lesions: Iris Values [15]: 0
Score of ocular lesions: Total score [15]: 5.67
Score of ocular lesions: Conjunctiva Bulbar redness [16]: 1.50
Score of ocular lesions: Conjunctiva Discharge [16]: 2.33
Score of ocular lesions: Conjunctiva Nictitating membrane [16]: 1.67
Score of ocular lesions: Conjunctiva Palpebral edema [16]: 3.00
Score of ocular lesions: Conjunctiva Palpebral redness [16]: 2.17
Score of ocular lesions: Cornea Area [16]: 0
Score of ocular lesions: Cornea Degree [16]: 0
Score of ocular lesions: Iris Values [16]: 0
Score of ocular lesions: Total score [16]: 10.67
Score of ocular lesions: Conjunctiva Bulbar redness (1.0%, Before instillation): 0
Score of ocular lesions: Conjunctiva Discharge (1.0%, Before instillation): 0
Score of ocular lesions: Conjunctiva Nictitating membrane (1.0%, Before instillation): 0
Score of ocular lesions: Conjunctiva Palpebral edema (1.0%, Before instillation): 0
Score of ocular lesions: Conjunctiva Palpebral redness (1.0%, Before instillation): 0.17
Score of ocular lesions: Cornea Area (1.0%, Before instillation): 0
Score of ocular lesions: Cornea Degree (1.0%, Before instillation): 0
Score of ocular lesions: Iris Values (1.0%, Before instillation): 0
Score of ocular lesions: Total score (1.0%, Before instillation): 0.17
Structure (SMILES): CC(N)[C@H]1CC[C@H](C(=O)Nc2ccncc2)CC1.Cl.Cl.O (single isomer, unassigned; (+)) [Compound A, (+)-trans-4-(1-Aminoethyl)-1-(4-pyridylcarbamoyl)cyclohexane 2HCl 1H2O]
